This is an account of results in ChEMBL document CHEMBL4340516, “Synthesis and antitumor activity of novel steroidal imidazolium salt derivatives” (Eur J Med Chem, 2019).

Experiment [1] concerns SMMC-7721. Kind of experiment: Cell cycle arrest in human SMMC7721 cells assessed as accumulation of cells at S phase at 4 uM after 24 hrs by propidium iodide staining-based flow cytometric analysis (reference value: 24.5 +/- 0.05%). The class given is functional. In general terms: Flow cytometry measures light scatter and fluorescence of single cells or particles in a stream.

Experiment [2] has as its system SMMC-7721. The experiment can be described thus: Induction of apoptosis in human SMMC7721 cells assessed as early apoptotic cells at 2 uM after 48 hrs by annexin V-FITC/propidium iodide staining based flow cytometry (reference value: 1.68%). Type of experiment: functional.
The subject of another experiment is SW480. Kind of experiment: Antiproliferative activity against human SW480 cells assessed as reduction in cell viability incubated for 48 hrs by MTS assay. The class given is functional, cell-based. Particulars: SW480, 48 h. In general terms: Tetrazolium assays rely on reduction of a dye to a coloured formazan, in cell work by metabolically active cells.
Experiment [3] deals with SMMC-7721. Kind of experiment: Antiproliferative activity against human SMMC7721 cells assessed as reduction in cell viability incubated for 48 hrs by MTS assay. Type of experiment: functional, cell-based. To be noted: SMMC-7721, 48 h.
For experiment [4], the system named is SMMC-7721. The experiment can be described thus: Cell cycle arrest in human SMMC7721 cells assessed as accumulation of cells at G2/M phase at 0.5 uM after 24 hrs by propidium iodide staining-based flow cytometric analysis (reference value: 8.72 +/- 0.42%). Type of experiment: functional.
Experiment [5] deals with SMMC-7721. Kind of experiment: Cell cycle arrest in human SMMC7721 cells assessed as accumulation of cells at G0/G1 phase at 0.5 uM after 24 hrs by propidium iodide staining-based flow cytometric analysis (reference value: 62.58 +/- 0.35%). Type of experiment: functional.
For experiment [6], the system named is SMMC-7721. The experiment can be described thus: Cell cycle arrest in human SMMC7721 cells assessed as accumulation of cells at sub-G1 phase at 0.5 uM after 24 hrs by propidium iodide staining-based flow cytometric analysis (reference value: 2.33 +/- 0.17%). The class given is functional.
The subject of experiment [7] is SMMC-7721. Kind of experiment: Cell cycle arrest in human SMMC7721 cells assessed as accumulation of cells at G0/G1 phase at 2 uM after 24 hrs by propidium iodide staining-based flow cytometric analysis (reference value: 62.58 +/- 0.35%). Type of experiment: functional.
In experiment [8] the test system is SMMC-7721. The experiment can be described thus: Induction of apoptosis in human SMMC7721 cells assessed as necrotic cells at 2 uM after 48 hrs by annexin V-FITC/propidium iodide staining based flow cytometry (reference value: 0.6%). The class given is functional.
The subject of the next experiment is HL-60. Kind of experiment: Antiproliferative activity against human HL60 cells assessed as reduction in cell viability incubated for 48 hrs by MTS assay. Type of experiment: functional, cell-based. Particulars: HL-60, 48 h.
The subject of experiment [9] is SMMC-7721. Kind of experiment: Cell cycle arrest in human SMMC7721 cells assessed as accumulation of cells at G2/M phase at 1 uM after 24 hrs by propidium iodide staining-based flow cytometric analysis (reference value: 8.72 +/- 0.42%). The class given is functional.
The test system of experiment [10] is SMMC-7721. Kind of experiment: Cell cycle arrest in human SMMC7721 cells assessed as accumulation of cells at G2/M phase at 4 uM after 24 hrs by propidium iodide staining-based flow cytometric analysis (reference value: 8.72 +/- 0.42%). Type of experiment: functional.
Experiment [11] deals with SMMC-7721. The experiment can be described thus: Cell cycle arrest in human SMMC7721 cells assessed as accumulation of cells at S phase at 0.5 uM after 24 hrs by propidium iodide staining-based flow cytometric analysis (reference value: 24.5 +/- 0.05%). The class given is functional.
The test system of experiment [12] is SMMC-7721. The experiment can be described thus: Cell cycle arrest in human SMMC7721 cells assessed as accumulation of cells at G0/G1 phase at 1 uM after 24 hrs by propidium iodide staining-based flow cytometric analysis (reference value: 62.58 +/- 0.35%). Type of experiment: functional.
In experiment [13] the test system is SMMC-7721. The experiment can be described thus: Induction of apoptosis in human SMMC7721 cells assessed as viable cells at 2 uM after 48 hrs by annexin V-FITC/propidium iodide staining based flow cytometry (reference value: 94.7%). Type of experiment: functional. Particulars: SMMC-7721, 48 h, read-out: Activity.
Experiment [14] deals with SMMC-7721. The experiment can be described thus: Induction of apoptosis in human SMMC7721 cells assessed as viable cells at 1 uM after 48 hrs by annexin V-FITC/propidium iodide staining based flow cytometry (reference value: 94.7%). Particulars: SMMC-7721, 48 h, read-out: Activity. The class given is functional.
The test system of experiment [15] is SMMC-7721. Kind of experiment: Cell cycle arrest in human SMMC7721 cells assessed as accumulation of cells at S phase at 1 uM after 24 hrs by propidium iodide staining-based flow cytometric analysis (reference value: 24.5 +/- 0.05%). The class given is functional.
For experiment [16], the system named is SMMC-7721. Kind of experiment: Induction of apoptosis in human SMMC7721 cells assessed as necrotic cells at 1 uM after 48 hrs by annexin V-FITC/propidium iodide staining based flow cytometry (reference value: 0.6%). Type of experiment: functional.
Experiment [17] relates to SMMC-7721. Kind of experiment: Induction of apoptosis in human SMMC7721 cells assessed as early apoptotic cells at 1 uM after 48 hrs by annexin V-FITC/propidium iodide staining based flow cytometry (reference value: 1.68%). The class given is functional.
Experiment [18] relates to SMMC-7721. Kind of experiment: Induction of apoptosis in human SMMC7721 cells assessed as late apoptotic cells at 2 uM after 48 hrs by annexin V-FITC/propidium iodide staining based flow cytometry (reference value: 3.05%). Type of experiment: functional.
The next experiment relates to A549. Kind of experiment: Antiproliferative activity against human A549 cells assessed as reduction in cell viability incubated for 48 hrs by MTS assay. Type of experiment: functional, cell-based. Particulars: A549, 48 h.
A further experiment concerns MCF7. The experiment can be described thus: Antiproliferative activity against human MCF7 cells assessed as reduction in cell viability incubated for 48 hrs by MTS assay. The class given is functional, cell-based. To be noted: MCF7, 48 h.
Experiment [19] has as its system SMMC-7721. Kind of experiment: Cell cycle arrest in human SMMC7721 cells assessed as accumulation of cells at G0/G1 phase at 4 uM after 24 hrs by propidium iodide staining-based flow cytometric analysis (reference value: 62.58 +/- 0.35%). Type of experiment: functional.
Experiment [20] deals with SMMC-7721. The experiment can be described thus: Cell cycle arrest in human SMMC7721 cells assessed as accumulation of cells at G0/G1 phase after 24 hrs by propidium iodide staining-based flow cytometric analysis. The class given is functional.
Experiment [21] has as its system SMMC-7721. The experiment can be described thus: Induction of apoptosis in human SMMC7721 cells assessed as late apoptotic cells at 1 uM after 48 hrs by annexin V-FITC/propidium iodide staining based flow cytometry (reference value: 3.05%). The class given is functional.
Experiment [22] concerns SMMC-7721. The experiment can be described thus: Cell cycle arrest in human SMMC7721 cells assessed as accumulation of cells at sub-G1 phase at 1 uM after 24 hrs by propidium iodide staining-based flow cytometric analysis (reference value: 2.33 +/- 0.17%). The class given is functional.
Experiment [23] relates to SMMC-7721. Kind of experiment: Potency index, ratio of DDP IC50 to compound IC50 for human SMMC7721 cells. Type of experiment: functional.

In general, IC50 refers to the midpoint of a concentration-inhibition curve. As to `Cc1cc2c(cc1C)[n+](Cc1ccccc1Br)cn2[C@@H]1CC[C@@]2(C)C(=CC[C@H]3[C@@H]4C[C@@H]5O[C@]6(CC[C@@H](C)CO6)[C@@H](C)[C@@H]5[C@@]4(C)CC[C@@H]32)C1.[Br-]`, the Activity with SMMC-7721 [1] was 14.22%; with SMMC-7721 [2], 0.69%; with SMMC-7721 [4], 3.49%; in the experiment on SMMC-7721 [5], 73.61%; in the experiment with SMMC-7721 [6] it was 2.4%; in the experiment on SMMC-7721 [7], 73.61%. Besides, the Activity in the experiment on SMMC-7721 [8] worked out at 6.62%; in the experiment with SMMC-7721 [9], 4.67%; in the experiment on SMMC-7721 [10] it was 4.67%; in the experiment on SMMC-7721 [11], 19.23%; in the experiment on SMMC-7721 [12], 78.1%; in the experiment on SMMC-7721 [15], 14.22%. Also, the Activity is 1.27% with SMMC-7721 [16]; 0.373% with SMMC-7721 [17]; 64.9% in the experiment on SMMC-7721 [18]; 78.1% with SMMC-7721 [19]; “Dose-dependent effect” in the experiment with SMMC-7721 [20]; 18.7% in the experiment on SMMC-7721 [21]. For the same molecule, in the experiment with SMMC-7721 [22], the Activity was 2.43%. Moreover, the IC50 in the experiment with SW480 was 790 nM; in the experiment with SMMC-7721 [3], 440 nM; in the experiment on HL-60, 490 nM; in the experiment on A549, 670 nM; in the experiment with MCF7, 730 nM. Further, in the experiment on SMMC-7721 [13], the viability at 2 µM was determined as 27.8%. Besides, in the experiment with SMMC-7721 [14], the viability at 1 µM was determined as 79.6%.

Turning to `C[C@@H]1CC[C@@]2(OC1)O[C@H]1C[C@H]3[C@@H]4CC=C5C[C@H](n6c[n+](Cc7ccccc7Br)c7ccccc76)CC[C@]5(C)[C@H]4CC[C@]3(C)[C@H]1[C@@H]2C.[Br-]`, the IC50 with SW480 is 2100 nM; in the experiment with SMMC-7721 [3], 210 nM; with HL-60 it was 340 nM; with A549, 4470 nM; in the experiment on MCF7 it was 2140 nM. Further, the “Ratio IC50” value with SMMC-7721 [23] is given as 54.
